Measured values from patent publication US8912184B1, “Therapeutic and diagnostic methods” (Alzheimer's Institute of America, Inc., priority 2010, dated 2014).

Tests used:
[1] = tested on: HCT116 cells; test: 72 Hour HCT116 Cytotoxicity Assay (CellTiter-Glo); type: cell-based; settings: Homo sapiens, HCT-116, 72 h, 72 hours; read-out: HCT116 cell cytotoxicity IC50
Protocol: HCT116 cells were seeded in 96 well plates (Greiner Bio-One, Monroe, N.C.) and allowed to settle overnight. Test compound dissolved in dimethyl sulfoxide (DMSO) was added and drug incubation proceeded for 72 hours. […] After 72 hour, 50 μL of CellTiter-Glo Luminescent Cell Viability Assay reagent (Promega Corporation, Madison, Wis.) was added to cells in 200 μL of cellular media. After a proscribed incubation period, luminescence was measured using a TopCount NXT plate reader (PerkinElmer, Waltham, Mass.).

[2] = tested on: HCT-116 cell line; test: cells; settings: Homo sapiens, HCT-116, 72 h, read-out: EC50 of NA rescue from Exemplary Compound A-induced cytotoxicity
Protocol: (§1) In the second method, cells were exposed to varying concentrations of NA in the presence of a fixed, toxic concentration of Nampt1 inhibitor. This allows determination of the relative effectiveness of NA at rescuing Nampt1 inhibitor-mediated cytotoxicity across cell lines. For this method, the following modifications were made to the standard cytotoxicity assay. Twenty four hours after cell were plated, a serial dilution of nicotinic acid, dissolved in water, was generated and added to the cells. […] Cell viability was then assessed at 72 h. Cell viability (after normalization to controls lacking Nampt1 inhibitor) was plotted against NA concentration.
(§2) In cases where the high asymptote of the NA rescue curve corresponded to 75% or less recovery in cell viability, the cell line was deemed to be partially rescued.
(§3) In the first set of experiments, two different cancer cell lines were employed.

[3] = tested on: MIA PaCa2 cell line; test: cells; settings: Homo sapiens, MIA PaCa-2, 72 h, read-out: EC50 of NA rescue from Exemplary Compound A-induced cytotoxicity
Protocol: as §1, §2, §3

[4] = type: in vivo; settings: mice, oral NA 3 g/kg 1 h prior or up to 8 h following 300 mg/kg Exemplary Compound A
[5] = tested on: HCT116 cells; test: Nicotinic Acid Rescue Cytotoxicity Assay, first method: cytotoxicity to HCT116 cells in presence and absence of 10 μM nicotinic acid; type: cell-based; settings: Homo sapiens, HCT-116, 72 h
Protocol: Additionally, Nicotinic Acid (NA) rescue of cytotoxicity of Nampt inhibitors was assessed by two distinct methods. In the first method, Nampt1 inhibitor cytotoxicity was evaluated in the presence and absence of exogenous nicotinic acid (NA) at a fixed concentration. […] Twenty four hours after cells were plated, the media was removed and replaced with media containing 10 μM nicotinic acid. Compounds were then immediately added. Cell viability was then assessed at 72 h.
Using the first of the two assays described above, the 90 compounds shown in Table 5, below, were tested for cytotoxicity towards Naprt1-proficient HCT116 cells, and for the ability of NA to block the observed cytotoxicity (or “rescue” the cells from the cytotoxic activity of the tested compound). The compounds listed are referred to by a unique rescue analysis example number (i.e., R1, R2 . . . R90) that is used as a reference number in Table 4, in which the results of the cytotoxicity and rescue assays are presented.

[6] = absence of nicotinic acid, read-out: HCT116 72 h cytotoxicity
[7] = presence of 10 μM nicotinic acid, read-out: HCT116 72 h cytotoxicity with 10 μM Nicotinic Acid

| SMILES | IC50 [5, 6] [nM] | IC50 [5, 7] [nM] | other results |
| --- | --- | --- | --- |
| N#C/N=C(/NCc1ccc(COc2ccccc2-c2ccccc2)cc1)Nc1ccncc1 [Example 605, 1-{4-[(Biphenyl-2-yloxy)methyl]benzyl}-2-cyano-3-pyridin-4-ylguanidine] | – | – | IC50 [1]: ~1.1 nM |
| O=C(NCc1cccnc1)Nc1ccc(COc2cc(C(F)(F)F)ccc2Cl)cc1 [Example 164, 1-(4-{[2-Chloro-5-(trifluorometh-yl)phenoxy]meth-yl}phenyl)-3-(pyridin-3-ylmethyl)urea] | – | – | IC50 [1]: ~74 nM |
| O=C(O)c1cccnc1 [NA, nicotinic acid] | – | – | EC50 [2]: 400 nM; EC50 [3]: > 10000 nM; effect of NA on Exemplary Compound A lethality [4]: completely blocked |
| O=C(NCc1cccnc1)Nc1ccc(C[S+]([O-])c2ccccc2-c2ccccc2)cc1 (stereo not shown) [Example 210, 1-{4-[(biphenyl-2-ylsulfinyl)meth-yl]phenyl}-3-(pyridin-3-ylmethyl)urea] | – | – | IC50 [1]: ~39 nM |
| C#CCN(Cc1ccccc1-c1ccccc1)c1ccc(C(=O)NCc2cccnc2)cc1 [Example R9, 4-[(Biphenyl-2-ylmethyl)(prop-2-yn-1-yl)amino]-N-(pyridin-3-ylmethyl)benzamide] | 41.5 | 12000 | – |
| O=C(NCc1cccnc1)Nc1ccc(C(=O)Nc2ccccc2-c2ccccc2)cc1 [Example R58, N-(biphenyl-2-yl)-4-{[(pyridin-3-ylmethyl)carbamoyl]amino}benzamide] | 1.6 | > 10000 | – |
| O=C(NCCc1cccnc1)c1ccc(NCc2ccccc2Br)cc1 [Example R34, 4-[(2-Bromobenzyl)amino]-N-[2-(pyridin-3-yl)ethyl]benzamide] | 1160 | > 50000 | – |
| CC(C)=CCN(Cc1cc2c(=O)n(C)c(C)nc2cc1Cl)c1ccc(C(=O)NCc2cccnc2)cc1 [Example R51, 4-{[(7-Chloro-2,3-dimethyl-4-oxo-3,4-dihydroquinazolin-6-yl)methyl](3-methylbut-2-en-1-yl)amino}-N-(pyridin-3-ylmethyl)benzamide] | 9.5 | > 10000 | – |
| O=C(NCc1cccnc1)c1ccc(NNc2ccc(C(=O)NCc3cccnc3)cc2)cc1 [Example R7, 4,4′-Hydrazine-1,2-diylbis[N-(pyridin-3-ylmethyl)benzamide]] | 8.8 | 22000 | – |
| O=C(NCc1ccc(NS(=O)(=O)c2cc(C(F)(F)F)ccc2Br)cc1)Nc1ccncc1 [Example R73, 2-bromo-N-(4-{[(pyridin-4-ylcarbamoyl)amino]methyl}phenyl)-5-(trifluoromethyl)benzenesulfonamide] | 1 | > 5000 | – |
| Cc1ccccc1NCC(=O)Nc1ccc(C(=O)NCc2cccnc2)cc1 [Example R20, 4-{[N-(2-Methylphenyl)glycyl]amino}-N-(pyridin-3-ylmethyl)benzamide] | 106 | > 50000 | – |
| O=C(NCc1cccnc1)Nc1ccc(NS(=O)(=O)c2ccc(F)cc2Br)cc1 [Example R62, 2-bromo-4-fluoro-N-(4-{[(pyridin-3-ylmethyl)carbamoyl]amino}phenyl)benzene-sulfonamide] | 12.9 | > 1000 | – |
| O=C(NCc1ccc(NS(=O)(=O)c2ccccc2-c2ccccc2)cc1)Nc1ccncc1 [Example R65, N-(4-{[(pyridin-4-ylcarbamoyl)amino]methyl}phenyl)biphenyl-2-sulfonamide] | 0.5 | > 1000 | – |
| O=C(NCc1cccnc1)Nc1ccc(COc2ccccc2-c2ccsc2)cc1 [Example R80, 1-(Pyridin-3-ylmethyl)-3-(4-{[2-(thiophen-3-yl)phenoxy]methyl}phenyl)urea] | 0.9 | > 5000 | – |
| O=C(NCc1cccnc1)c1ccc(NCc2ccccc2-c2cccc(Cl)c2)cc1 [Example R30, 4-{[(3′-Chlorobiphenyl-2-yl)methyl]amino}-N-(pyridin-3-ylmethyl)benzamide] | 1350 | 29000 | – |
| O=C(NCc1cccnc1)c1ccc(NCc2ccccc2OC(F)(F)F)cc1 [Example R8, N-(Pyridin-3-ylmethyl)-4-{[2-(trifluoromethoxy)benzyl]amino}benzamide] | 3130 | > 10000 | – |
| N#Cc1ccc(NC(=S)NCCCCCCOc2ccc(Cl)cc2)cc1 [Example R35, 1-[6-(4-Chlorophenoxy)hexyl]-3-(4-cyanophenyl)thiourea] | 1530 | 2000 | – |
| O=C(NCc1cccnc1)Nc1ccc(NS(=O)(=O)c2ccccc2Br)cc1F [Example R56, 2-bromo-N-(3-fluoro-4-{[(pyridin-3-ylmethyl)carbamoyl]amino}phenyl)benzene-sulfonamide] | 50 | > 1000 | – |
| Cc1c(COc2ccc(C(=O)NCc3cccnc3)cc2)cccc1C(F)(F)F [Example R24, 4-{[2-Methyl-3-(trifluoromethyl)benzyl]oxy}-N-(pyridin-3-ylmethyl)benzamide] | 12000 | 45000 | – |
| N#C/N=C(/NCCCCCCOc1ccc(Cl)cc1)NCc1cccnc1 [Example R40, 1-[6-(4-Chlorophenoxy)hexyl]-2-cyano-3-(pyridin-3-ylmethyl)guanidine] | 1090 | > 10000 | – |
| N#C/N=C(/NCc1ccc(NS(=O)(=O)c2ccccc2-c2ccccc2)cc1)Nc1ccncc1 [Example R59, N-(4-{[N″-cyano-N′-(pyridin-4-yl)carbamimidamido]methyl}phenyl) biphenyl-2-sulfonamide] | 0.6 | > 5000 | – |
| O=C(NCCCNS(=O)(=O)c1ccccc1-c1ccccc1)NCc1cccnc1 [Example 152, N-(3-{[(pyridin-3-ylmethyl)carbamoyl]a-mino}propyl)biphenyl-2-sulfonamide] | – | – | IC50 [1]: ~55 nM |
| CC(C)c1ccccc1NCC(=O)Nc1ccc(C(=O)NCc2cccnc2)cc1 [Example R22] | 302 | > 50000 | – |
